Test results taken from patent US20040097421A1 (priority 2000, published 2004).
Structures can show the parent of a compound that is named as a salt. Where two headings read alike, the source gives them in different places.

Experiments:
[1] = system: solid fresh human tumour specimens (PHTC); assay type: cell-based
[2] = system: panel of ten human tumour cell lines; assay type: cell-based
[3] = system: U-1752 (non-small cell lung cancer); test: cells; assay type: cell-based; conditions: Homo sapiens, read-out: IC50 (μM), U-1752
[4] = system: NCI-H611 (non-small cell lung cancer); test: cells; assay type: cell-based; conditions: Homo sapiens, read-out: IC50 (μM), NCI-H611
[5] = system: U-1568 (non-small cell lung cancer); test: cells; assay type: cell-based; conditions: Homo sapiens, read-out: IC50 (μM), U-1568
[6] = system: U1906L (small cell lung cancer); test: cells; assay type: cell-based; conditions: Homo sapiens, read-out: IC50 (μM), U1906L
[7] = system: U1285 (small cell lung cancer); test: cells; assay type: cell-based; conditions: Homo sapiens, read-out: IC50 (μM), U1285
[8] = system: U-1906E (small cell lung cancer); test: cells; assay type: cell-based; conditions: Homo sapiens, read-out: IC50 (μM), U-1906E
[9] = system: U1690 (small cell lung cancer); test: cells; assay type: cell-based; conditions: Homo sapiens, read-out: IC50 (μM), U1690
[10] = system: hematological fresh human tumour specimens (PHTC); assay type: cell-based
[11] = system: CEM/S (leukemia CCRF-CEM); test: cells; assay type: cell-based; conditions: Homo sapiens, 72 h, read-out: IC50 (μM), CEM/S
[12] = system: 8226S (myeloma RPMI 8226); test: cells; assay type: cell-based, human; conditions: read-out: IC50 (μM), 8226S
[13] = system: fresh human tumour specimens (fourteen hematological, thirteen solid); test: FMCA, IC50 comparison in 27 fresh human tumour specimens; assay type: cell-based; conditions: 27 human tumour samples, 82 to 0.131 μM
[14] = system: H69AR (doxorubicin resistance subline); assay type: cell-based, human
[15] = system: Ovarian carcinoma tumor cell system; test: Cytotoxic activity in different tumor models, ovarian carcinoma; assay type: cell-based, human; conditions: Number 8
[16] = system: Breast cancer tumor cell system; test: Cytotoxic activity in different tumor models, breast cancer; assay type: cell-based, human; conditions: Number 4
[17] = system: NSC Lung cancer tumor cell system; test: Cytotoxic activity in different tumor models, NSC lung cancer; assay type: cell-based, human; conditions: Number 8
[18] = system: Corpus cancer tumor cell system; test: Cytotoxic activity in different tumor models, corpus cancer; assay type: cell-based, human; conditions: Number 4
[19] = system: Adenocarcinoma tumor cell system; test: Cytotoxic activity in different tumor models, adenocarcinoma; assay type: cell-based, human; conditions: Number 5
[20] = system: 27 PHTC samples from 9 patients with hematological and 18 patients with solid tumours; test: Circumvention of melphalan resistance, FMCA classification of PHTC samples; assay type: cell-based, human; conditions: 4 μM
[21] = system: solid tumour types, cell lines and primary cultures of human tumour cells from patients; test: Tumour type specific spectrum of antitumour activity, solid tumour types; assay type: cell-based; conditions: for Activity in the listed diagnoses of Table 5: 4.0 μM; for Activity against solid tumour types (activity = at least 50% reduction in tumour cell survival): cell lines and PHTC
[22] = system: hematological tumors, primary cultures of human tumor cells from patients (PHTC); assay type: cell-based
[23] = system: solid tumors, primary cultures of human tumor cells from patients (PHTC); assay type: cell-based
[24] = system: Prostate cancer tumor cell system; test: Cytotoxic activity in different tumor models, prostate cancer; assay type: cell-based, human; conditions: Number 1
sarcoma 45 = conditions: rats; cited from earlier work
[25] = system: mitochondria from rat liver homogenates and Jensen sarcoma cells; conditions: cited from earlier work

Nc1ccn([C@@H]2O[C@H](CO)[C@@H](O)[C@@H]2O)c(=O)n1 [AraC]
Tumor cell survival index %, Solid (n = 22) [1]: 102%

N.N.[Cl][Pt][Cl] [Cisplatin, cisplatin]
IC50 (μM), MEAN [2]: 18.0 µM

CC(=O)O[C@@]12CO[C@@H]1C[C@H](O)[C@@]1(C)C(=O)[C@H](O)C3=C(C)[C@@H](OC(=O)[C@H](O)[C@@H](NC(=O)OC(C)(C)C)c4ccccc4)C[C@@](O)([C@@H](OC(=O)c4ccccc4)[C@H]21)C3(C)C [Docetaxel, docetaxel]
Tumor cell survival index %, Solid (n = 22) [1]: 67% | IC50 [3]: 0.46 µM | IC50 [4]: 1.1 µM | IC50 [5]: 5.94 µM | IC50 [6]: 0.1 µM | IC50 [7]: 0.1 µM | IC50 [8]: 0.1 µM | IC50 [9]: 7.7 µM

COc1cccc2c1C(=O)c1c(O)c3c(c(O)c1C2=O)C[C@@](O)(C(=O)CO)C[C@@H]3O[C@H]1C[C@H](N)[C@H](O)[C@H](C)O1 [Doxorubicin, doxorubicin]
Tumor cell survival index %, Hematological (n = 42) [10]: 29% | Tumor cell survival index %, Solid (n = 22) [1]: 97% | IC50 [11]: 0.18 µM | IC50 ([12]; Homo sapiens, RPMI-8226, 72 h): 0.13 µM | IC50 (μM), MEAN [2]: 3.51 µM | IC50 [3]: 0.42 µM | IC50 [4]: ≥ 183 µM | IC50 [5]: ≥ 183 µM | IC50 [6]: 0.92 µM | IC50 [7]: 0.52 µM | IC50 [8]: 0.44 µM | IC50 [9]: 2.21 µM

COc1cc([C@@H]2c3cc4c(cc3[C@@H](O[C@@H]3O[C@@H]5CO[C@@H](C)O[C@H]5[C@H](O)[C@H]3O)[C@H]3COC(=O)[C@H]23)OCO4)cc(OC)c1O [Etoposide, etoposide]
Tumor cell survival index %, Hematological (n = 42) [10]: 47% | Tumor cell survival index %, Solid (n = 22) [1]: 81%

CCOC(=O)[C@H](Cc1ccc(F)cc1)NC(=O)[C@@H](N)Cc1ccc(N(CCCl)CCCl)cc1.Cl [Example J1, L-Melphalanyl-L-p-fluorophenylalanine ethyl ester hydrochloride]
Comparison of IC50s (FIG. 2) [13]: in all cases was more active than P2 | IC50 [14]: 0.9 µM | Median response at 4.0 μM >50% reduction in tumor cell survival [15]: Yes | Median response at 4.0 μM >50% reduction in tumor cell survival [16]: Yes | Median response at 4.0 μM >50% reduction in tumor cell survival [17]: Yes | Median response at 4.0 μM >50% reduction in tumor cell survival [18]: No | Median response at 4.0 μM >50% reduction in tumor cell survival [19]: Yes | Number of samples classified EDR (extreme drug resistance) [20]: 1 | Number of samples classified IDR (intermediate drug resistance) [20]: 3 | Samples classified EDR (%) [20]: 6% | Activity in the listed diagnoses of Table 5 [21]: active in most of these diagnoses | Activity against solid tumour types (activity = at least 50% reduction in tumour cell survival) [21]: showed activity against several types of solid tumours

CCOC(=O)[C@H](Cc1ccc(F)cc1)NC(=O)[C@H](Cc1ccc(N(CCCl)CCCl)cc1)NC(=O)[C@@H]1CCCN1.Cl [Example J3, L-Prolinyl-L-melphalanyl-L-p-fluorophenylalanine ethyl ester hydrochloride]
Activity against hematological PHTC samples compared to melphalan and sarcolysine [22]: more active | Tumor cell survival index (%), Hematological tumors n = 7-11 [22]: 7% | Activity against solid tumor samples compared to melphalan, sarcolysine and P2 [23]: more active | Median response at 4.0 μM >50% reduction in tumor cell survival [15]: Yes | Median response at 4.0 μM >50% reduction in tumor cell survival [16]: Yes | Median response at 4.0 μM >50% reduction in tumor cell survival [17]: Yes | Median response at 4.0 μM >50% reduction in tumor cell survival [24]: Yes | Median response at 4.0 μM >50% reduction in tumor cell survival [18]: Yes | Median response at 4.0 μM >50% reduction in tumor cell survival [19]: Yes | Number of samples classified EDR (extreme drug resistance) [20]: 0 (0%) | Number of samples classified IDR (intermediate drug resistance) [20]: 4 | Samples classified EDR (%) [20]: 0 (0%) | Activity in the listed diagnoses of Table 5 [21]: active | Activity against solid tumour types (activity = at least 50% reduction in tumour cell survival) [21]: showed activity against several types of solid tumours

CCOC(=O)[C@H](Cc1ccccc1)NC(=O)[C@@H](N)Cc1ccc(N(CCCl)CCCl)cc1.Cl [JV22, L-Melphalanyl-L-phenylalanine ethyl ester hydrochloride]
IC50 (μM), MEAN [2]: 0.48 µM

CCOC(=O)[C@H](Cc1ccc(O)cc1)NC(=O)[C@@H](N)Cc1ccc(N(CCCl)CCCl)cc1.Cl [JV24, L-Melphalanyl-L-tyrosine ethyl ester hydrochloride]
IC50 (μM), MEAN [2]: 1.05 µM

CCOC(=O)[C@H](Cc1ccc(N(CCCl)CCCl)cc1)NC(=O)[C@@H](N)Cc1ccc(N(CCCl)CCCl)cc1 [JV27, L-Melphalanyl-L-melphalan ethyl ester hydrochloride]
IC50 [12]: 1.01 µM

CC(C)OC(=O)[C@H](Cc1ccc(F)cc1)NC(=O)[C@@H](N)Cc1ccc(N(CCCl)CCCl)cc1.Cl [JV28, L-Melphalanyl-L-p-fluorophenylalanine isopropyl ester hydrochloride]
Activity against hematological PHTC samples compared to melphalan and sarcolysine [22]: more active | Activity against solid tumor samples compared to melphalan, sarcolysine and P2 [23]: more active | Median response at 4.0 μM >50% reduction in tumor cell survival [15]: Yes | Median response at 4.0 μM >50% reduction in tumor cell survival [16]: Yes | Median response at 4.0 μM >50% reduction in tumor cell survival [17]: Yes | Median response at 4.0 μM >50% reduction in tumor cell survival [24]: Yes | Median response at 4.0 μM >50% reduction in tumor cell survival [19]: Yes | Number of samples classified EDR (extreme drug resistance) [20]: 1 | Number of samples classified IDR (intermediate drug resistance) [20]: 2 | Samples classified EDR (%) [20]: 6% | Activity in the listed diagnoses of Table 5 [21]: active in most of these diagnoses | Activity against solid tumour types (activity = at least 50% reduction in tumour cell survival) [21]: showed activity against several types of solid tumours

CC[C@]1(O)C[C@H]2CN(CCc3c([nH]c4ccccc34)[C@@](C(=O)OC)(c3cc4c(cc3OC)N(C=O)[C@H]3[C@@](O)(C(=O)OC)[C@H](OC(C)=O)[C@]5(CC)C=CCN6CC[C@]43[C@@H]65)C2)C1 [Vincristine, vincristine]
Tumor cell survival index %, Hematological (n = 42) [10]: 39% | Tumor cell survival index %, Solid (n = 22) [1]: 93% | IC50 [11]: 0.08 µM | IC50 ([12]; Homo sapiens, RPMI-8226, 72 h): 0.01 µM | IC50 (μM), MEAN [2]: 30.1 µM

CCC1=C[C@@H]2CN(C1)Cc1c([nH]c3ccccc13)[C@@](C(=O)OC)(c1cc3c(cc1OC)N(C)[C@H]1[C@@](O)(C(=O)OC)[C@H](OC(C)=O)[C@]4(CC)C=CCN5CC[C@]31[C@@H]54)C2 [Vinorelbine, vinorelbine]
Tumor cell survival index %, Hematological (n = 42) [10]: 50% | Tumor cell survival index %, Solid (n = 22) [1]: 73%

CCOC(=O)[C@H](CC(C)C)NC(=O)[C@H](Cc1ccc(N(CCCl)CCCl)cc1)NC(C)=O [asaley]
Sarcoma 45 growth (sarcoma 45): inhibited

CCOC(=O)[C@H](Cc1ccc(O)cc1)NC(=O)[C@H](Cc1ccc(N(CCCl)CCCl)cc1)NC(C)=O [astyron, N-acetyl-L-melphalanyl-L-tyrosine ethyl ester]
Sarcoma 45 growth (sarcoma 45): inhibited

CC(C)[C@H](NC(=O)[C@@H](N)Cc1ccc(N(CCCl)CCCl)cc1)C(=O)O [salin, L-melphalanyl-L-valine]
Oxidative phosphorylation in mitochondria [25]: disrupted
